Key:
E. coli TOP10 F′ = experiment: Growth of E. coli control cells on medium containing fosmidomycin; assay type: cell-based; conditions: TOP10 F′ transformed with parent vectors; LB or LB/IPTG with fosmidomycin 20 μg/ml
Protocol: Single colonies of TOP10 F′/pHKO2 (designated strain HK6), TOP10 F′/pHKO3 (designated strain HK7), and TOP10 F′/pHKO9 (designated strain HK8), are used to individually inoculate 4 ml LB/amp cultures and grown overnight at 30° C., 225 rpm. The HK6 and HK7 cultures are serially diluted 10,000 to 100,000-fold and plated on LB containing fosmidomycin (20 μg/ml).

[1] = system: Nicotiana tabacum var. ‘Xanthi NC’ leaf sections; experiment: Toxicity of fosmidomycin to tobacco grown on medium; conditions: after three weeks of growth on medium
DXP reductoisomerase = DXP reductoisomerase (Escherichia coli, UniProt P45568); conditions: Kuzuyama et al., 1998; cited from earlier work
[2] = especially in combination with other herbicides; Kamuro et al.; cited from earlier work

DXP reductoisomerase, sequence (P45568 whole entry): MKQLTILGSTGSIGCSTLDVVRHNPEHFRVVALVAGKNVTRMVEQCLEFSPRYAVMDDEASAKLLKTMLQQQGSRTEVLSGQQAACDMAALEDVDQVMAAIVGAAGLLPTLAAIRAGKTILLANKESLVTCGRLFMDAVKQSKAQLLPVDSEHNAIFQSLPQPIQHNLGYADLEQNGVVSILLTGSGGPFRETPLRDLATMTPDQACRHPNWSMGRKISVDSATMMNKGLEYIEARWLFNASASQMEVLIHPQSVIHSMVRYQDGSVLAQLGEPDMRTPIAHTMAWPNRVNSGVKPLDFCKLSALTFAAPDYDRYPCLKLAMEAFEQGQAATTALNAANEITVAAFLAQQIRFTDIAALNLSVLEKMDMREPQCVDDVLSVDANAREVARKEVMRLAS

O=CN(O)CCCP(=O)(O)O [fosmidomycin]
growth of E. coli control cells on medium containing fosmidomycin (E. coli TOP10 F′): unable to grow | fosmidomycin concentration at which toxicity is evident in tobacco [1]: at least 500 micromolar | inhibition of the enzyme DXP reductoisomerase (DXP reductoisomerase): specific inhibitor | herbicidal activity [2]: significant herbicidal activity
